Results from patent publication US9630929B2, “Benzenesulfonamide compounds and their use as therapeutic agents” (XENON PHARMACEUTICALS INC., priority 2011, dated 2017).

How the values were obtained:
Type in all cases: cell-based
NaV1.7 [1] = target: T1, NaV1.7 (Homo sapiens (Human), UniProt Q15858); assay: Patch voltage clamp electrophysiology (EP), affinity for the inactivated state of Nav1.7; details: HEK-293 cells expressing human Nav1.7 with β1 subunit
Experimental: (§1) The following patch voltage clamp electrophysiology studies were performed on representative compounds of the invention using human embryonic kidney cells (HEK), permanently transfected with an expression vector containing the full-length cDNA coding for the desired human sodium channel α-subunit, grown in culture media containing 10% FBS, 1% PSG, and 0.5 mg/mL G418 at 37° C. with 5% CO2. […] Nav1.7 and Nav1.5 cDNAs (NM_002977 and AC137587; SCN5A, respectively) were stably expressed in HEK-293 cells. The β1 subunit was coexpressed only in the Nav1.7 cell line.
(§2) Sodium currents were measured using the patch clamp technique in the whole-cell configuration using either a PatchXpress automated voltage clamp or manually using an Axopatch 200B (Axon Instruments) or Model 2400 (A-M systems) amplifier. […] The pipette was filled with a solution comprised of: 5 mM NaCl, 10 mM CsCl, 120 mM CsF, 0.1 mM CaCl2, 2 mM MgCl2, 10 mM HEPES, 10 mM EGTA; and adjusted to pH 7.2 with CsOH. The external solution had the following composition: 140 mM NaCl, 5 mM KCl, 2 mM CaCl2, 1 mM MgCl2, 10 mM HEPES; and adjusted to pH 7.4 with NaOH. In some studies, the external sodium was reduced by equimolar replacement with choline. Osmolarity in the CsF internal and NaCl external solutions was adjusted to 300 mOsm/kg and 310 mOsm/kg with glucose, respectively. All recordings were performed at ambient temperature in a bath chamber with a volume of 150 μL. Control sodium currents were measured in 0.5% DMSO. Controls and representative compounds of the invention were applied to the recording chamber through a 4-pinch or 8-pinch valve bath perfusion system manufactured by ALA Scientific Instruments.
Series resistance compensation was applied (60-80%). […] All statistics in this study are given as mean±SD.
(§3) The membrane potential was maintained at a voltage where inactivation of the channel is complete (which was −60 mV for both Nav1.7 and Nav1.5). The voltage is then stepped back to a very negative (Vhold=−150 mV) voltage for 20 ms and then a test pulse is applied to quantify the compound block. […] The percent decrease in sodium current following wash-on of compound was taken as the percent block of sodium channels.
(§4) The Example numbers provided in Table 1 and Table 2 correspond to the Examples herein: […]

NaV1.5 [2] = target: T2, NaV1.5 (Homo sapiens (Human), UniProt Q14524); assay: Patch voltage clamp electrophysiology (EP), affinity for the inactivated state of Nav1.5
Experimental: Patch voltage clamp electrophysiology allows for the direct measurement and quantification of block of voltage-gated sodium channels (Nav's), and allows the determination of the time- and voltage-dependence of block which has been interpreted as differential binding to the resting, open, and inactivated states of the sodium channel (Hille, B., Journal of General Physiology (1977), 69: 497-515).
as §1, §2
Currents were recorded at 40 kHz sampling frequency, filtered at […], and stored using a Digidata-1322A analogue/digital interface with the pClamp software (Axon Instruments). Series resistance compensation was applied (60-80%). […] All statistics in this study are given as mean±SD.
as §3, §4

NaV1.7 [3] = target: T1, NaV1.7; assay: NaV flux assay, inhibition of NaV1.7; details: NaV flux data, included when EP data is not available
NaV1.5 [4] = target: T2, NaV1.5; assay: NaV flux assay, inhibition of NaV1.5; details: NaV flux data, included when EP data is not available
[5] = HEK-293 cells expressing human Nav1.5, read-out: NaV1.5 IC50
[6] = HEK-293 cells expressing human Nav1.5, read-out: NaV1.5 IC50(μM) (class)

T2 sequence (Q14524 whole entry): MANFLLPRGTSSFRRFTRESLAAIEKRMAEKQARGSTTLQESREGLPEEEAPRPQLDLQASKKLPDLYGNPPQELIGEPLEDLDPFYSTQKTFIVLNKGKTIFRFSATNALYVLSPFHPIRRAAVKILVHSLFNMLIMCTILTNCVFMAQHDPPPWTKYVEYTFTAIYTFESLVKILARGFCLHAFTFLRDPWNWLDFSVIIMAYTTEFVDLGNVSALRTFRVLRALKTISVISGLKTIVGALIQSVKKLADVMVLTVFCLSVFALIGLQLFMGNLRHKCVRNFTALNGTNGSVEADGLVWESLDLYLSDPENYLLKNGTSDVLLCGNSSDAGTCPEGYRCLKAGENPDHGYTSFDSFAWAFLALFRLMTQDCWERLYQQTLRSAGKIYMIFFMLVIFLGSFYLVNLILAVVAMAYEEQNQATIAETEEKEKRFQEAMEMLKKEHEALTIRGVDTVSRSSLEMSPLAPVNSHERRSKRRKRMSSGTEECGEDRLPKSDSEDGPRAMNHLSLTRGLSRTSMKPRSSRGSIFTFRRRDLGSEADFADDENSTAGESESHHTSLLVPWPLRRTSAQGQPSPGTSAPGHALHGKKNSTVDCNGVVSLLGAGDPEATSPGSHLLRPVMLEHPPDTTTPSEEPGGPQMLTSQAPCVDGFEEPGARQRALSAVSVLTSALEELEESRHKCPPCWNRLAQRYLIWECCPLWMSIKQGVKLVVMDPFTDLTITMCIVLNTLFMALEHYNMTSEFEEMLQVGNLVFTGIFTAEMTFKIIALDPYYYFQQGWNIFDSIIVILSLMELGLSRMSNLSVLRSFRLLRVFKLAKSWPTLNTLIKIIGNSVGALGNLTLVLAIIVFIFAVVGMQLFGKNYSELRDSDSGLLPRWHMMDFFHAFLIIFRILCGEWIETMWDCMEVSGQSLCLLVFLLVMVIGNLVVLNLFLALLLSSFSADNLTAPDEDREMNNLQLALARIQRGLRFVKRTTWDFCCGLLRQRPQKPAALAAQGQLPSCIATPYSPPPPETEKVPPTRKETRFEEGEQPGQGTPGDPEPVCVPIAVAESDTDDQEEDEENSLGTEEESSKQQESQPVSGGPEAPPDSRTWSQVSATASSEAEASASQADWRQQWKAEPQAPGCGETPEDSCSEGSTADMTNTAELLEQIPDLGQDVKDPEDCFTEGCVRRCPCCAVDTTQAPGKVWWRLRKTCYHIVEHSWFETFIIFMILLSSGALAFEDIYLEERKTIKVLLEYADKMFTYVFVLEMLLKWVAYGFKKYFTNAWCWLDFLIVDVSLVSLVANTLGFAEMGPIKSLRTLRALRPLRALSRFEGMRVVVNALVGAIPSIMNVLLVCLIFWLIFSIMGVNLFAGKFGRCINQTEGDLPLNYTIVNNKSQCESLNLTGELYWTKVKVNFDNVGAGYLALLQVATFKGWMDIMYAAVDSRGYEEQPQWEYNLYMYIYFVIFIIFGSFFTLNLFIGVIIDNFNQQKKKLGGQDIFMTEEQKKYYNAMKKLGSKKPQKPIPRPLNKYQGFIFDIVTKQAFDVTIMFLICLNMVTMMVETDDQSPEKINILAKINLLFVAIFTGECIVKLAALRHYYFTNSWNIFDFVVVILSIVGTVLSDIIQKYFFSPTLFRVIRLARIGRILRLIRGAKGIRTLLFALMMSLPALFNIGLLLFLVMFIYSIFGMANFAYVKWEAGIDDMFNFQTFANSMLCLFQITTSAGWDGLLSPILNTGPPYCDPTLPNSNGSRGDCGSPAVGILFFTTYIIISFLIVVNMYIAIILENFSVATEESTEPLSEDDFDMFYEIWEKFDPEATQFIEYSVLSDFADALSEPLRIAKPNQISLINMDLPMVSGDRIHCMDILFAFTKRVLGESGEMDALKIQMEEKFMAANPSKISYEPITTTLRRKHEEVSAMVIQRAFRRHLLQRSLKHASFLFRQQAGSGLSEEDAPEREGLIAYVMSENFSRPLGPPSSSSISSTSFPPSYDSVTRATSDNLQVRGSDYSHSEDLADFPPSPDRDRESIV
T1 sequence (Q15858 other isoform, or with tags, fused parts or gaps): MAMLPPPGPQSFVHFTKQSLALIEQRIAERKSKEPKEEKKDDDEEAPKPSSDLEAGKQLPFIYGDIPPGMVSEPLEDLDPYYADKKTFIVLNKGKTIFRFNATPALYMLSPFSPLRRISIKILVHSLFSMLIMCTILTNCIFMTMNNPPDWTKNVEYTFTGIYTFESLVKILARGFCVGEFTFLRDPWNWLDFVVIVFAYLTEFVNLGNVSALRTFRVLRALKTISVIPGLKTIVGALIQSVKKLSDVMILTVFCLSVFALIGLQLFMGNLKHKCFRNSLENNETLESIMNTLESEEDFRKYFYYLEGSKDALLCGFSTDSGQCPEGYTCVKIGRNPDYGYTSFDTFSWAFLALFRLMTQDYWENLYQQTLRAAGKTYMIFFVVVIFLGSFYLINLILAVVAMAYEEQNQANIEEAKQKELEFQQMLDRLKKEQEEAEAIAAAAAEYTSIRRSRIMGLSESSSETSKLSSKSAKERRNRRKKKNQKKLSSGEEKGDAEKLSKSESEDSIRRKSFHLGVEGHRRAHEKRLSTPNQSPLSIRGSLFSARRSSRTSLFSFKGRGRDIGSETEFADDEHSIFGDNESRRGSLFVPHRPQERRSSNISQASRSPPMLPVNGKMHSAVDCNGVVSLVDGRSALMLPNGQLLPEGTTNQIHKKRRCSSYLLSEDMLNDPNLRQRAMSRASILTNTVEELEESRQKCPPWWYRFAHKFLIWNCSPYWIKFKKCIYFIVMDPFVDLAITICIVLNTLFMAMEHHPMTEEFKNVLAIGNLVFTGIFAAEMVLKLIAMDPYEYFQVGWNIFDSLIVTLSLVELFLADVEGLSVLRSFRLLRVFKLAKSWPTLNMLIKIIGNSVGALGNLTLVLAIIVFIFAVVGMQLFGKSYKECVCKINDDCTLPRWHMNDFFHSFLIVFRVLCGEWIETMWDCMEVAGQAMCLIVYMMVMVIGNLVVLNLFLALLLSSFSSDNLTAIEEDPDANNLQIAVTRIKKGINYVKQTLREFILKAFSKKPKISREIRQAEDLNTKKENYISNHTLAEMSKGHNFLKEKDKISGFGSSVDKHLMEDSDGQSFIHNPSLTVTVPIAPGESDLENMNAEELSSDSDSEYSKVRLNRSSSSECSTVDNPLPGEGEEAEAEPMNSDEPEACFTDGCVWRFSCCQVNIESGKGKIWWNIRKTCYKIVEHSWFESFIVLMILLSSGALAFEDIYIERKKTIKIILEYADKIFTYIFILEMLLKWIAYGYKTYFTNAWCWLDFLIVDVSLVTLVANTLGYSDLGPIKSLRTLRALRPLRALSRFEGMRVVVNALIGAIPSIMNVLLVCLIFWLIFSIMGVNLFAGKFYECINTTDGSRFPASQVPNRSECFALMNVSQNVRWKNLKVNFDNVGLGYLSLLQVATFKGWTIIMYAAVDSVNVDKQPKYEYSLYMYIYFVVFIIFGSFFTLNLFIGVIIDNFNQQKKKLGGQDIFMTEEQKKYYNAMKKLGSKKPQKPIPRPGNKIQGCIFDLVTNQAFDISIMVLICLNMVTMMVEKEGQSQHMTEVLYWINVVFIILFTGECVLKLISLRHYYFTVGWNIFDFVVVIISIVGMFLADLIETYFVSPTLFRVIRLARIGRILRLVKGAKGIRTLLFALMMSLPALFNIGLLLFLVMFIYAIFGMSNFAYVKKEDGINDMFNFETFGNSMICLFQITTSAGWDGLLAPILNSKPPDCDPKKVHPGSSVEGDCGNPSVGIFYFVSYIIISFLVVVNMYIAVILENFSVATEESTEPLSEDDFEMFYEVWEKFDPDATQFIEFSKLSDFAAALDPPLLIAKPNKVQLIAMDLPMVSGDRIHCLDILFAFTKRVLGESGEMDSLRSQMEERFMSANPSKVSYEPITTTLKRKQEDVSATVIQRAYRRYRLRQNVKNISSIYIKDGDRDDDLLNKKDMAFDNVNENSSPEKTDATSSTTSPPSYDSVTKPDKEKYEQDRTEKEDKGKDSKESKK
T1 sequence (Q07699 19-218 partner): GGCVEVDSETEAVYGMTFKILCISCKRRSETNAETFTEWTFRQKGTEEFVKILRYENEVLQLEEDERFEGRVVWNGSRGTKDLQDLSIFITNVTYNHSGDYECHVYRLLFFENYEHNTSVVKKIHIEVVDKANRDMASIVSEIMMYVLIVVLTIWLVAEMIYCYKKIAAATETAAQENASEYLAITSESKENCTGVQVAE

SMILES	IC50 (NaV1.7 [1]; read-out: NaV1.7 (IC50 class)) [nM]	IC50 (NaV1.7 [1]; read-out: NaV1.7 IC50) [nM]	IC50 (NaV1.7 [3]) [µM]	IC50 (NaV1.5 [2]; [5]) [µM]	IC50 (NaV1.5 [2]; [6]) [µM]	IC50 (NaV1.5 [4]) [µM]
O=S(=O)(Nc1ncns1)c1ccc(OC[C@@H]2CNCC[C@H]2c2ccc(Cl)cc2)c(F)c1 (relative stereo) [Example 59, 4-((trans-4-(4-chlorophenyl)piperidin-3-yl)methoxy)-3-fluoro-N-(1,2,4-thiadiazol-5-yl)benzenesulfonamide]	< 100	8.6		> 10	> 10	
O=S(=O)(Nc1ncns1)c1cc(F)c(OC[C@@H]2CN(CC(F)(F)F)CC[C@H]2c2ccc(Cl)cc2)cc1F (relative stereo) [Example 88, 4-((trans-4-(4-chlorophenyl)-1-(2,2,2-trifluoroethyl)piperidin-3-yl)methoxy)-2,5-difluoro-N-(1,2,4-thiadiazol-5-yl)benzenesulfonamide]	100 to 1000	130		> 10	> 10	
CC(=O)NS(=O)(=O)c1cc(F)c(OC[C@@H]2CNCC[C@H]2c2ccc(Cl)cc2)cc1F (relative stereo) [Example 102, N-((4-((trans-4-(4-chlorophenyl)piperidin-3-yl)methoxy)-2,5-difluorophenyl)sulfonyl)acetamide]			> 10			
Cn1cns/c1=N/S(=O)(=O)c1cc(F)c(OC[C@@H]2CNCC[C@H]2c2ccc(Cl)cc2)cc1F (relative stereo) [Example 78, (E)-4-((trans-4-(4-chlorophenyl)piperidin-3-yl)methoxy)-2,5-difluoro-N-(4-methyl-1,2,4-thiadiazol-5(4H)-ylidene)benzenesulfonamide]			4.08			
O=C(NS(=O)(=O)c1cc(F)c(OC[C@@H]2CNCC[C@H]2c2ccc(Cl)cc2)cc1F)c1cccnc1 (relative stereo) [Example 103, N-((4-((trans-4-(4-chlorophenyl)piperidin-3-yl)methoxy)-2,5-difluorophenyl)sulfonyl)nicotinamide]			> 10			
CC(C)NC(=O)NS(=O)(=O)c1cc(F)c(OC[C@@H]2CNCC[C@H]2c2ccc(Cl)cc2)cc1F (relative stereo) [Example 105, 4-((trans-4-(4-chlorophenyl)piperidin-3-yl)methoxy)-2,5-difluoro-N-(isopropylcarbamoyl)benzenesulfonamide]			> 10			
O=S(=O)(Nc1ncns1)c1cc(F)c(OCC2(F)CNCCC2c2ccc(F)cc2)cc1F (stereo not shown) [Example 47, 2,5-difluoro-4-((3-fluoro-4-(4-fluorophenyl)piperidin-3-yl)methoxy)-N-(1,2,4-thiadiazol-5-yl)benzenesulfonamide]	< 100	50.7		> 10	> 10	
NS(=O)(=O)c1cc(F)c(OC[C@@H]2CNCC[C@H]2c2ccc(Cl)cc2)cc1F (relative stereo) [Example 95, 4-((trans-4-(4-chlorophenyl)piperidin-3-yl)methoxy)-2,5-difluorobenzenesulfonamide]			> 10			
N#Cc1cc(S(=O)(=O)Nc2ncns2)ccc1OC[C@@H]1CNCC[C@H]1c1ccc(Cl)cc1 (relative stereo) [Example 58, 4-((trans-4-(4-chlorophenyl)piperidin-3-yl)methoxy)-3-cyano-N-(1,2,4-thiadiazol-5-yl)benzenesulfonamide]	< 100	3.3		> 10	> 10	
O=S(=O)(Nc1ncns1)c1cc(F)c(OC[C@@H]2CNCC[C@H]2c2ccc(Cl)c(F)c2)cc1F (relative stereo) [Example 97, 4-((trans-4-(4-chloro-3-fluorophenyl)piperidin-3-yl)methoxy)-2,5-difluoro-N-(1,2,4-thiadiazol-5-yl)benzenesulfonamide]						> 10
N#Cc1cc(S(=O)(=O)NC2(C#N)CC2)ccc1OC[C@@H]1CNCC[C@H]1c1ccc(Cl)cc1 (relative stereo) [Example 91, 4-((trans-4-(4-chlorophenyl)piperidin-3-yl)methoxy)-3-cyano-N-(1-cyanocyclopropyl)benzenesulfonamide]			> 10			
NC(=O)N1CC[C@@H](c2ccc(F)c(F)c2)[C@H](COc2cc(F)c(S(=O)(=O)Nc3ncc(Cl)s3)cc2F)C1 (relative stereo) [Example 89, trans-3-((4-(N-(5-chlorothiazol-2-yl)sulfamoyl)-2,5-difluorophenoxy)methyl)-4-(3,4-difluorophenyl)piperidine-1-carboxamide]	100 to 1000	436		> 10	> 10	

Second part, led by results:

IC50 (NaV1.7 [1]; read-out: NaV1.7 (IC50 class)) [nM]	IC50 (NaV1.7 [1]; read-out: NaV1.7 IC50) [nM]	IC50 (NaV1.7 [3]) [µM]	SMILES	IC50 (NaV1.5 [2]; [5]) [µM]	IC50 (NaV1.5 [2]; [6]) [µM]	IC50 (NaV1.5 [4]) [µM]
< 100	4.8		CN1CC[C@H](c2ccc(Cl)cc2)[C@@H](COc2cc(F)c(S(=O)(=O)Nc3ncns3)cc2F)C1 [Example 85, 4-(((3R,4S)-4-(4-chlorophenyl)-1-methylpiperidin-3-yl)methoxy)-2,5-difluoro-N-(1,2,4-thiadiazol-5-yl)benzenesulfonamide]	> 10	> 10	
100 to 1000	331		CN1CC[C@@H](c2ccc(Cl)cc2)[C@H](COc2cc(F)c(S(=O)(=O)Nc3ncns3)cc2F)C1 [Example 86, 4-(((3S,4R)-4-(4-chlorophenyl)-1-methylpiperidin-3-yl)methoxy)-2,5-difluoro-N-(1,2,4-thiadiazol-5-yl)benzenesulfonamide]	> 10	> 10	
< 100	0.8		O=S(=O)(Nc1ncns1)c1cc(F)c(OC[C@@H]2CNCC[C@H]2c2ccc(Cl)c(Cl)c2)cc1F (relative stereo) [Example 92, 4-((trans-4-(3,4-dichlorophenyl)piperidin-3-yl)methoxy)-2,5-difluoro-N-(1,2,4-thiadiazol-5-yl)benzenesulfonamide]			> 10
< 100	12		CN1CC[C@@H](c2ccc(Cl)cc2)[C@H](COc2cc(F)c(S(=O)(=O)Nc3ncns3)cc2F)C1 (relative stereo) [Example 70, 4-((trans-4-(4-chlorophenyl)-1-methylpiperidin-3-yl)methoxy)-2,5-difluoro-N-(1,2,4-thiadiazol-5-yl)benzenesulfonamide]	> 10	> 10	
		2.32	O=S(=O)(Nc1ncns1)c1cc(F)c(OC[C@@H]2CNCC[C@H]2c2ccc(Cl)cc2)c(F)c1 (relative stereo) [Example 81, 4-((trans-4-(4-chlorophenyl)piperidin-3-yl)methoxy)-3,5-difluoro-N-(1,2,4-thiadiazol-5-yl)benzenesulfonamide]			
< 100	21.6		O=S(=O)(Nc1ncc(Cl)s1)c1cc(F)c(OC[C@@H]2CNCC[C@H]2c2ccc(F)c(F)c2)cc1F (relative stereo) [Example 61, N-(5-chlorothiazol-2-yl)-4-((trans-4-(3,4-difluorophenyl)piperidin-3-yl)methoxy)-2,5-difluorobenzenesulfonamide]	> 10	> 10	
< 100	82		O=C1C[C@@H](c2ccc(F)cc2)[C@H](COc2cc(F)c(S(=O)(=O)Nc3ncns3)cc2F)CN1 (relative stereo) [Example 87, 2,5-difluoro-4-((trans-4-(4-fluorophenyl)-6-oxopiperidin-3-yl)methoxy)-N-(1,2,4-thiadiazol-5-yl)benzenesulfonamide]	> 10	> 10	
< 100	6.8		O=S(=O)(Nc1ncns1)c1cc(F)c(OC[C@@H]2CNCC[C@H]2c2ccc(F)cc2)cc1F (relative stereo) [Example 45, 2,5-difluoro-4-((trans-4-(4-fluorophenyl)piperidin-3-yl)methoxy)-N-(1,2,4-thiadiazol-5-yl)benzenesulfonamide]	> 10	> 10	
